This note sets out measurements from US9549560B2, “Pesticidal compositions and related methods” (DOW AGROSCIENCES LLC, priority 2013, dated 2017).

Assay [1] deals with Sweetpotato Whitefly-Crawler (Bemisia tabaci). In words: Insecticidal test for Sweetpotato Whitefly-Crawler (WF) (BEMITA) in foliar spray assay on cotton plants. The format is in vivo. The following applies: 216 h, 200 ppm foliar spray, graded after 9 days, Abbott corrected % control, read-out: % Control (or Mortality) rating, WF. The method, then:
Cotton plants (Gossypium hirsutum) grown in 3-inch pots, with 1 small (4-5 cm) true leaves, were used as test substrate. The plants were infested with 200-400 whitefly eggs 4-5 days prior to chemical application. Four pots with individual plants were used for each treatment. Test compounds (2 mg) were dissolved in 1 mL of acetone solvent, forming stock solutions of 2000 ppm test compound. The stock solutions were diluted 10× with 0.025% Tween 20 in H2O (diluents) to obtain the solution at 200 ppm test compound. A hand-held aspirator-type sprayer was used for spraying a solution to both sides of cotton leaves until runoff. Reference plants (solvent check) were sprayed with the diluent only containing 10% by volume of acetone solvent. Treated plants were held in a holding room for 9 days at approximately 25° C. and ambient relative humidity (RH) prior to grading. Evaluation was conducted by counting the number of live 3-4 nymph stage per plant under a microscope. Percent control was measured by using Abbott's correction formula (W. S. Abbott, “A Method of Computing the Effectiveness of an Insecticide,” J. Econ. Entomol. 18 (1925), pp. 265-267) as follows. Corrected % Control=100*(X−Y)/X
X=No. of live nymphs on solvent check plants and
Y=No. of live nymphs on treated plants.
(§1) Biological Data for Green Peach Aphid (GPA) (MYZUPE) and Sweetpotato Whitefly-crawler (WF) (BEMITA)” (See Table Section).

The subject of assay [2] is Green Peach Aphid (Myzus persicae). The assay can be described thus: Bioassay for Green Peach Aphid (GPA) (MYZUPE), foliar spray on cabbage seedlings. The format is in vivo. The following applies: 72 h, 200 ppm foliar spray, graded after three days, Abbott corrected % control, read-out: % Control (or Mortality) rating, GPA. The method, then: Cabbage seedlings grown in 3-inch pots, with 2-3 small (3-5 cm) true leaves, were used as test substrate. The seedlings were infested with 20-50 GPA (wingless adult and nymph stages) one day prior to chemical application. Four pots with individual seedlings were used for each treatment. Test compounds (2 mg) were dissolved in 2 mL of acetone/methanol (1:1) solvent, forming stock solutions of 1000 ppm test compound. The stock solutions were diluted 5× with 0.025% Tween 20 in H2O to obtain the solution at 200 ppm test compound. A hand-held aspirator-type sprayer was used for spraying a solution to both sides of […] leaves until runoff. Reference plants (solvent check) were sprayed with the diluent only containing 20% by volume of acetone/methanol (1:1) solvent. Treated plants were held in a holding room for three days at approximately 25° C. and ambient relative humidity (RH) prior to grading. Evaluation was conducted by counting the number of live aphids per plant under a microscope. Percent control was measured by using Abbott's correction formula (W. S. Abbott, “A Method of Computing the Effectiveness of an Insecticide,” J. Econ. Entomol. 18 (1925), pp. 265-267) as follows. Corrected % Control=100*(X−Y)/X
X=No. of live aphids on solvent check plants and
Y=No. of live aphids on treated plants
as §1

The term mortality denotes the percentage killed.

Consider `CCN(C(=O)CCSCCC(F)(F)F)c1cn(-c2ccc[n+]([O-])c2)nc1C` [Compound P18, 3-(4-(N-Ethyl-3-((3,3,3-trilluoropropyl)thio)propanamido)-3-methyl-1H-pyrazol-1-yl)pyridine 1-oxide], for which the mortality at 200 ppm in assay [1] and in assay [2] was 80 to 100% in each case.
Regarding `CC(C(=O)N(C)c1cn(-c2ccc[n+]([O-])c2)nc1Cl)S(C)(=O)=O` (stereo not drawn) [FA12, 3-(3-chloro-4-(N-methyl-2-(methylsulfonyl)propanamido)-1H-pyrazol-1-yl)pyridine 1-oxide], the mortality at 200 ppm in assay [1] and in assay [2] was 80 to 100% each time.
Turning to `CCN(C(=O)CC[S+]([O-])CCC(F)(F)F)c1cn(-c2cc(F)c[n+]([O-])c2)nc1Cl` (stereo not drawn) [Compound P37, 3-(3-Chloro-4-(N-ethyl-3-((3,3,3-trilluoropropyl)sulfinyl)propanamido)-1H-pyrazol-1-yl)-5-fluoropyridine 1-oxide], the mortality at 200 ppm in assay [1] and in assay [2] was 80 to 100% throughout.
As to `CCN(C(=O)CCSCC1CC1(F)F)c1cn(-c2ccc[n+]([O-])c2)nc1Cl` (stereo not drawn) [Compound P48, 3-(3-Chloro-4-(3-(((2,2-difluorocyclopropyl)methyl)thio)-N-ethylpropanamido)-1H-pyrazol-1-yl)pyridine 1-oxide], the mortality at 200 ppm in assay [1] and in assay [2] was 80 to 100% each time.
In the case of `C#CCN(C(=O)CC[S+]([O-])CCCC(F)(F)F)c1cn(-c2ccc[n+]([O-])c2)nc1Cl` (stereo not drawn) [Compound P72, 3-(3-Chloro-4-(N-(prop-2-yn-1-yl)-3-((4,4,4-trifluorobutyl)sulfinyl)propanamido)-1H-pyrazol-1-yl)pyridine 1-oxide], the mortality at 200 ppm in assay [1] and in assay [2] was 80 to 100% each time.
`CN(C(=O)CCSCC1CC1(F)F)c1cn(-c2ccc[n+]([O-])c2)nc1Cl` (stereo not drawn) [Compound P56, 3-(3-Chloro-4-(3-(((2,2-difluorocyclopropyl)methyl)thio)-N-methylpropanamido)-1H-pyrazol-1-yl)pyridine 1-oxide]: the mortality at 200 ppm in assay [1] and in assay [2] was 80 to 100% in each case.
Regarding `CCN(C(=O)C(C)S(=O)(=O)CC(F)(F)F)c1cn(-c2ccc[n+]([O-])c2)nc1Cl` (stereo not drawn) [Compound F8, 3-(3-Chloro-4-(N-ethyl-2-((2,2,2-trifluoroethyl)sulfonyl)propanamido)-1H-pyrazol-1-yl)pyridine 1-oxide], the mortality at 200 ppm in assay [1] and in assay [2] was 80 to 100% throughout.
In the case of `CCNc1cn(-c2ccc[n+]([O-])c2)nc1Cl` [Compound C1, 3-(3-chloro-4-(ethylamino)-1H-pyrazol-1-yl)pyridine 1-oxide], the mortality at 200 ppm in assay [1] and in assay [2] was 0 to 80% throughout.
Consider `CCN(C(=O)C(C)C[S+]([O-])CCC(F)(F)F)c1cn(-c2ccc[n+]([O-])c2)nc1C` (stereo not drawn) [FA10, 3-(4-(N-Ethyl-2-methyl-3-((3,3,3-trifluoropropyl)sulfinyl)propanamido)-3-methyl-1H-pyrazol-1-yl)pyridine 1-oxide], for which the mortality at 200 ppm was 0 to 80% in assay [1] and 80 to 100% in assay [2].
Regarding `CCN(C(=O)CC[S+]([O-])CC1CC1(F)F)c1cn(-c2ccc[n+]([O-])c2)nc1Cl` (stereo not drawn) [Compound P49, 3-(3-Chloro-4-(3-(((2,2-difluorocyclopropyl)methyl)sulfinyl)-N-ethylpropanamido)-1H-pyrazol-1-yl)pyridine 1-oxide], the mortality at 200 ppm in assay [1] and in assay [2] was 80 to 100% throughout.
Take `CCN(C(=O)CCSCCCC(F)(F)F)c1cn(-c2ccc[n+]([O-])c2)nc1Cl` [Compound P53, 3-(3-Chloro-4-(N-ethyl-3-((4,4,4-trifluorobutyl)thio)propanamido)-1H-pyrazol-1-yl)pyridine 1-oxide]: the mortality at 200 ppm in assay [1] and in assay [2] was 80 to 100% throughout.
`CC(C[S+]([O-])CCC(F)(F)F)C(=O)N(C)c1cn(-c2ccc[n+]([O-])c2)nc1Cl` (stereo not drawn) [FA8, 3-(3-Chloro-4-(N,2-dimethyl-3-((3,3,3-trifluoropropyl)sulfinyl)propanamido)-1H-pyrazol-1-yl)pyridine 1-oxide]: the mortality at 200 ppm in assay [1] and in assay [2] was 80 to 100% each time.
`CCN(C(=O)CCSC)c1cn(-c2ccc[n+]([O-])c2)nc1Cl` [Compound F2, 3-(3-Chloro-4-(N-ethyl-3-(methylthio)propanamido)-1H-pyrazol-1-yl) pyridine 1-oxide]: the mortality at 200 ppm in assay [1] and in assay [2] was 80 to 100% each time.
In the case of `CC(CSCCC(F)(F)F)C(=O)N(C)c1cn(-c2ccc[n+]([O-])c2)nc1Cl` (stereo not drawn) [FA5, 3-(3-Chloro-4-(N,2-dimethyl-3-((3,3,3-trifluoropropyl)thio)propanamido)-1H-pyrazol-1-yl)pyridine 1-oxide], the mortality at 200 ppm in assay [1] and in assay [2] was 80 to 100% throughout.
With `CN(C(=O)CCSCCCC(F)(F)F)c1cn(-c2ccc[n+]([O-])c2)nc1Cl` [Compound P62, 3-(3-Chloro-4-(N-methyl-3-((4,4,4-trifluorobutyl)thio)propanamido)-1H-pyrazol-1-yl)pyridine 1-oxide], the mortality at 200 ppm in assay [1] and in assay [2] was 80 to 100% each time.
Consider `CCN(C(=O)CC[S+]([O-])CCCC(F)(F)F)c1cn(-c2ccc[n+]([O-])c2)nc1C` (stereo not drawn) [Compound P81, 3-(4-(N-Ethyl-3-((4,4,4-trilluorobutyl)sulfinyl)propanamido)-3-methyl-1H-pyrazol-1-yl)pyridine 1-oxide], for which the mortality at 200 ppm in assay [1] and in assay [2] was 80 to 100% each time.
Consider `CN(C(=O)CC[S+]([O-])CCCC(F)(F)F)c1cn(-c2ccc[n+]([O-])c2)nc1Cl` (stereo not drawn) [Compound P63, 3-(3-Chloro-4-(N-methyl-3-((4,4,4-trifluorobutyl)sulfinyl)propanamido)-1H-pyrazol-1-yl)pyridine 1-oxide], for which the mortality at 200 ppm in assay [1] and in assay [2] was 80 to 100% throughout.
With `CN(C(=O)CC[S+]([O-])CC1CC1(F)F)c1cn(-c2ccc[n+]([O-])c2)nc1Cl` (stereo not drawn) [Compound P57, 3-(3-Chloro-4-(3-(((2,2-difluorocyclopropyl)methyl)sulfinyl)-N-methylpropanamido)-1H-pyrazol-1-yl)pyridine 1-oxide], the mortality at 200 ppm in assay [1] and in assay [2] was 80 to 100% throughout.
As for `C#CCN(C(=O)CCSCCC(F)(F)F)c1cn(-c2ccc[n+]([O-])c2)nc1Cl` [Compound P9, 3-(3-Chloro-4-(N-(prop-2-yn-1-yl)-3-((3,3,3-trifluoropropyl)thio)propanamido)-1H-pyrazol-1-yl)pyridine 1-oxide], the mortality at 200 ppm in assay [1] and in assay [2] was 80 to 100% in each case.
As for `C#CCNc1cn(-c2ccc[n+]([O-])c2)nc1Cl` [CA1, 3-(3-Chloro-4-(prop-2-yn-1-ylamino)-1H-pyrazol-1-yl)pyridine 1-oxide], the mortality at 200 ppm in assay [1] and in assay [2] was 0 to 80% each time.
With `CN(C(=O)CCSCCC(F)(F)F)c1cn(-c2ccc[n+]([O-])c2)nc1Cl` [Compound P1, 3-(3-chloro-4-(N-methyl-3-((3,3,3-trifluoropropyl)thio)propanamido)-1H-pyrazol-1-yl)pyridine 1-oxide], the mortality at 200 ppm in assay [1] and in assay [2] was 80 to 100% in each case.
